According to publication PMC6467771 (Journal of medicinal chemistry, 2019):
Like-named read-outs stand apart in the source and are kept apart here.

Assays:
[1] = tested on: uropathogenic Escherichia coli (UPEC); conditions: cited from earlier work
FmlH = FmlH (Escherichia coli, UniProt Q1RBS0); assay type: binding, Escherichia coli (UPEC, CFT073); conditions: FmlH binding to desialylated bovine submaxillary mucin, average of four or more replicates
[2] = Stability in simulated gastric fluid; assay type: in vitro ADME
Mouse plasma stability = assay type: in vitro ADME
[3] = Kinetic aqueous solubility; assay type: physicochemical; conditions: aqueous, pH 7.4
[4] = Mouse liver microsome stability; assay type: in vitro ADME
[5] = Stability in simulated intestinal fluid; assay type: in vitro ADME

Row | Compound | effect on bacterial titers in bladder and kidney ([1]; co-administration with 4Z269, a mannoside inhibitor of FimH) | effect on bladder and kidney CFUs ([1]; treatment model of chronic cystitis) | IC50 (FmlH; IC50, ELISA) [nM] | IC50 (FmlH; ELISA) [nM] | SGF (% remaining @ 6 h) [2] [%] | mouse plasma (% remaining @ 2 h) (Mouse plasma stability) [%] | kinetic solubility [3] [µM] | mouse liver microsomes (t1/2 min) [4] [h] | SIF (% remaining @ 2 h) [5] [%]
1 | CC(=O)N[C@H]1[C@H](Oc2ccccc2-c2cccc(C(=O)O)c2)O[C@H](CO)[C@H](O)[C@@H]1O [Compound 1] | further reduced bacterial titers in both the bladder and kidney | significantly reduce bladder and kidney CFUs | 640 |  |  |  |  |  | 
2 | N-((2S,3S,4R,5R)-4/5-Dihydro xy-6-(hydroxymethyl)-2-((6-methyl-3’-(methylsulfonamido)-[1,1’-biphenyl]-2-yl)oxy)tetrahydro-2H-pyran-3-yl)-2,2,2-trifluoroacetimidic Acid [Compound 88] |  |  |  | 48 | 91 | 89 | 164 | >2.42 | 89
